Reference: patent publication US11958861B2, “Spirocyclic lactams as JAK2 V617F inhibitors” (Incyte Corporation, priority 2021, dated 2024)
Where a name gives a salt, the structure may show the parent alone.

Tests used:
[1] = biological target: T1, pseudo-kinase domain (JH2, amino-acids 536-812) of human Wild Type JAK2 (Homo sapiens, UniProt O60674, F794H/W659A/W777A); experiment: JAK2 LanthaScreen JH2-WT Binding Assay; details: 1 hour at 25° C.
T1 construct: pseudo-kinase domain (JH2, amino-acids 536-812 with 3 surface mutations W659A, W777A, F794H); purchased BPS Bioscience 79463; host or cells: baculovirus expression system
Summary of the method: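 IC50 values derive from four-parameter fits of LanthaScreen signal, measuring displacement of 50 nM fluorescent tracer from 0.145 nM biotinylated, baculovirus-expressed JH2 (536-812) detected by 0.25 nM streptavidin-Tb. Incubation lasts 1 hour at 25° C, pH 7.5.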

[2] = biological target: T2, catalytic domain (JH1, amino acids 826-1132) of human JAK2 (Homo sapiens, UniProt O60674); experiment: JAK2 LanthaScreen JH1 Binding Assay; details: 2 hours at 25° C.
T2 construct: catalytic domain (JH1, amino acids 826-1132) of human JAK2; purchased Carna Biosciences 08-445-20N; host or cells: baculovirus expression system
Summary of the method: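 FLAG-tagged biotinylated JAK2 JH1 (1.5 nM) incubated with compounds, 50 nM fluorescent tracer and 0.5 nM streptavidin-Tb in Tris pH 7.5 buffer with MgCl2, BSA, DTT, 2 h at 25 °C.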

[3] = biological target: T3, catalytic domain (JH1, amino acids 808-1132) of human JAK2 (Homo sapiens, UniProt O60674); experiment: JAK2 HTRF Enzyme Activity Assay; format: biochemical; details: ATP 30 μM, read-out: ENZ 30UMATP
T3 construct: catalytic domain (JH1, amino acids 808-1132) of human JAK2; His (N); purchased BPS Bioscience 40450; host or cells: baculovirus expression system
Summary of the method: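 His-tagged JAK2 JH1 from baculovirus, 0.015 nM, incubated with compound, ATP at 30 μM or 1 mM and 500 nM biotinylated peptide, pH 7.5, 60 min at 25° C. HTRF read-out via Eu-anti-phosphotyrosine and streptavidin-APC after EDTA stop; IC50 from four-parameter dose-response fit.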

[4] = biological target: T4, pseudo-kinase domain (JH2, amino-acids 536-812) of human V617F mutant JAK2 (Homo sapiens, UniProt O60674, F794H/V617F/W659A/W777A); experiment: JAK2 LanthaScreen JH2-V617F Binding Assay; details: 1 hour at 25° C.
T4 construct: pseudo-kinase domain (JH2, amino-acids 536-812 with 3 surface mutations W659A, W777A, F794H); purchased BPS Bioscience 79498; host or cells: baculovirus expression system
Summary of the method: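 Biotinylated His-Avi-tagged JH2 protein was baculovirus-expressed and used at 0.26 nM. It was incubated with compound, 50 nM fluorescent JH2 tracer and 0.25 nM streptavidin-Tb for 1 h at 25 °C in pH 7.5 Tris buffer with MgCl2, BSA, DTT. Non-specific binding was defined with 2 mM ATP. IC50 came from four-parameter fits of TR-FRET signal.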

T4 sequence (O60674 536-812 V617F/W659A/W777A/F794H): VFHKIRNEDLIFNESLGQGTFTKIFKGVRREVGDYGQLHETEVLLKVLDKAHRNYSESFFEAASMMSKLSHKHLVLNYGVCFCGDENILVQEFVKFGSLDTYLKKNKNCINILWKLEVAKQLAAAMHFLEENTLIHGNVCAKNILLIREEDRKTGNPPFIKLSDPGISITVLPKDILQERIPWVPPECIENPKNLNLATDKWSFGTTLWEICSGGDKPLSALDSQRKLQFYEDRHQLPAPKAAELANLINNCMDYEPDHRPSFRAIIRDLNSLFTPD
T3 sequence (O60674 808-1132): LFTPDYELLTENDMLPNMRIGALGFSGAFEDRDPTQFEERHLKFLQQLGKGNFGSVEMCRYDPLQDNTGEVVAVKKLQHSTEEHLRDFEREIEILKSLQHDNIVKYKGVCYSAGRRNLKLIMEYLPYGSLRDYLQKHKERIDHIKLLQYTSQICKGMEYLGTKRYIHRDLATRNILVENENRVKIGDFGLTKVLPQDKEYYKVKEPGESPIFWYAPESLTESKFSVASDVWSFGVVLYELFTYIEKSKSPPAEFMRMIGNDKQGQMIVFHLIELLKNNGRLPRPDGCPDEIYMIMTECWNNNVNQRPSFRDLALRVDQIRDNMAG
T2 sequence (O60674 826-1132): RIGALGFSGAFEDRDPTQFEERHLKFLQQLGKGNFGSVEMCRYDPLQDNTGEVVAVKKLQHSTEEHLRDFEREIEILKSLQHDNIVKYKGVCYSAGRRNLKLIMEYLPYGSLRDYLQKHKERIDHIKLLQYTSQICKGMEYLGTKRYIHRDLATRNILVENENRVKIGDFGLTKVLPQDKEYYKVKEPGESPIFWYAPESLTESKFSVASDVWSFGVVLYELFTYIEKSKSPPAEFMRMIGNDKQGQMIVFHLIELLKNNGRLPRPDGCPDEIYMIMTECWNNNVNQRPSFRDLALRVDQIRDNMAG
T1 sequence (O60674 536-812 W659A/W777A/F794H): as the sequence (O60674 536-812 V617F/W659A/W777A/F794H) above, with F82V counted along it

SMILES	IC50 [1]	IC50 [2]	IC50 [3]	IC50 [4]
CN1C(=O)C2(CCOCC2)c2c1cnc1[nH]c(-c3ccc(CN4CCC(S(C)(=O)=O)CC4)cc3)c(-c3ccccc3)c21 [Example 1, 6-Methyl-2-(4-((4-(methylsulfonyl)piperidin-1-yl)methyl)phenyl)-1-phenyl-2′,3,3′,5′,6,6′-hexahydro-7H-spiro[dipyrrolo[2,3-b:3′,2′-d]pyridine-8,4′-pyran]-7-one]	≤ 100 nM	1250 to 2500 nM	1250 to 2500 nM	≤ 100 nM
CC(=O)N1CCC(N2CC3(C2)C(=O)N(C)c2cnc4[nH]c(-c5ccc(CN6CCC(S(C)(=O)=O)CC6)cc5)c(-c5ccccc5)c4c23)CC1 [Example 3]	100 to 500 nM	> 2500 nM	> 2500 nM	100 to 500 nM
CN1C(=O)C2(CCN(CCC#N)CC2)c2c1cnc1[nH]c(-c3ccc(CN4CCC(S(C)(=O)=O)CC4)cc3)c(-c3ccccc3)c21 [Example 4, 3-(6-Methyl-2-((4(4-(methylsulfonyl)piperidin-1-yl)methyl)phenyl)-7-oxo-1-phenyl-6,7-dihydro-3H-spiro[dipyrrolo[2,3-b:3′,2′-d]pyridine-8,4′-piperidin]-1′-yl)propanenitrile trifluoroacetate salt]	≤ 100 nM	500 to 1250 nM	500 to 1250 nM	≤ 100 nM
CN1C(=O)C2(CCN(CCC#N)CC2)c2c1cnc1[nH]c(-c3ccc(CN4CCC(S(C)(=O)=O)CC4)cc3)c(-c3ccc4c(cnn4C)c3)c21 [Example 5, 3-(6-Methyl-1-(1-methyl-1H-indazol-5-yl)-2-(4-((4-(methylsulfonyl)piperidin-1-yl)methyl)phenyl)-7-oxo-6,7-dihydro-3H-spiro[dipyrrolo[2,3-b:3′,2′-d]pyridine-8,4′-piperidin]-1′-yl)propanenitrile trifluoroacetate salt]	≤ 100 nM	500 to 1250 nM	500 to 1250 nM	≤ 100 nM
CN1C(=O)C2(CCN(c3cnn(C4(CC#N)CCOCC4)c3)CC2)c2c1cnc1[nH]c(-c3cnn(C)c3)c(-c3ccccc3)c21 [Example 6, 2-(4-(4-(6-Methyl-2-(1-methyl-1H-pyrazol-4-yl)-7-oxo-1-phenyl-6,7-dihydro-3H-spiro[dipyrrolo[2,3-b:3′,2′-d]pyridine-8,4′-piperidin]-1′-yl)-1H-pyrazol-1-yl)tetrahydro-2H-pyran-4-yl)acetonitrile trifluoroacetate salt]	≤ 100 nM	> 2500 nM	> 2500 nM	≤ 100 nM
[2H]C([2H])([2H])n1cc(-c2[nH]c3ncc4c(c3c2-c2ccc3c(cnn3C)c2)C2(CCN(CCC#N)CC2)C(=O)N4C)cn1 [Example 7, 3-(6-Methyl-1-(1-methyl-1H-indazol-5-yl)-2-(1-(methyl-d3)-1H-pyrazol-4-yl)-7-oxo-6,7-dihydro-3H-spiro[dipyrrolo[2,3-b:3′,2′-d]pyridine-8,4′-piperidin]-1′-yl)propanenitrile]	≤ 100 nM	1250 to 2500 nM	1250 to 2500 nM	≤ 100 nM
CN1C(=O)C2(CCCC2)c2c1cnc1[nH]c(-c3cnn(Cc4ccncc4)c3)c(-c3ccc4c(cnn4C)c3)c21 [Example 8, 6′-Methyl-1′-(1-methyl-1H-indazol-5-yl)-2′-(1-(pyridin-4-ylmethyl)-1H-pyrazol-4-yl)-3′,6′-dihydro-7′H-spiro[cyclopentane-1,8′-dipyrrolo[2,3-b:3′,2′-d]pyridin]-7′-one trifluoroacetate salt]	≤ 100 nM	1250 to 2500 nM	> 2500 nM	≤ 100 nM
CN1C(=O)C2(CCCC2)c2c1cnc1[nH]c(C3CC3)c(-c3ccc4c(cnn4C)c3)c21 [Example 9, 2′-Cyclopropyl-6′-methyl-1′-(1-methyl-1H-indazol-5-yl)-3′,6′-dihydro-7′H-spiro[cyclopentane-1,8′-dipyrrolo[2,3-b:3′,2′-d]pyridin]-7′-one, trifluoroacetate salt]	100 to 500 nM	> 2500 nM	> 2500 nM	100 to 500 nM
CN1C(=O)C2(CCC2)c2c1cnc1[nH]c(-c3ccc(CN4CCC(S(C)(=O)=O)CC4)cc3)c(-c3ccccc3)c21 [Example 10, 6′-Methyl-2′-(4-((4-(methylsulfonyl)piperidin-1-yl)methyl)phenyl)-1′-phenyl-3′,6′-dihydro-7′H-spiro[cyclobutane-1,8′-dipyrrolo[2,3-b:3′,2′-d]pyridin]-7′-one trifluoroacetate salt]	≤ 100 nM	> 2500 nM	> 2500 nM	≤ 100 nM
CN1C(=O)C2(CCCCC2)c2c1cnc1[nH]c(-c3ccc(CN4CCC(S(C)(=O)=O)CC4)cc3)c(-c3ccccc3)c21 [Example 11, 6′-Methyl-2′-((4(4-(methylsulfonyl)piperidin-1-yl)methyl)phenyl)-1′-phenyl-3′,6′-dihydro-7′H-spiro[cyclohexane-1,8′-dipyrrolo[2,3-b:3′,2′-d]pyridin]-7′-one trifluoroacetate salt]	100 to 500 nM	> 2500 nM	> 2500 nM	100 to 500 nM
CC(=O)N1C2CCC1CC1(C2)C(=O)N(C)c2cnc3[nH]c(-c4ccc(CN5CCC(S(C)(=O)=O)CC5)cc4)c(-c4ccccc4)c3c21 (stereo not shown) [Example 13, 8-Acetyl-6′-methyl-2′-((4(4-(methylsulfonyl)piperidin-1-yl)methyl)phenyl)-1′-phenyl-3′,6′-dihydro-7′H-8-azaspiro[bicyclo[3.2.1]octane-3,8′-dipyrrolo[2,3-b:3′,2′-d]pyridin]-7′-one trifluoroacetate salt]	≤ 100 nM	1250 to 2500 nM	1250 to 2500 nM	100 to 500 nM
CN1C(=O)C2(CCN(c3ccncn3)CC2)c2c1cnc1[nH]c(-c3ccc(CN4CCC(S(C)(=O)=O)CC4)cc3)c(-c3ccccc3)c21 [Example 15, 6-Methyl-2-(4-((4-(methylsulfonyl)piperidin-1-yl)methyl)phenyl)-1-phenyl-1′-(pyrimidin-4-yl)-3,6-dihydro-7H-spiro[dipyrrolo[2,3-b:3′,2′-d]pyridine-8,4′-piperidin]-7-one, trifluoroacetate salt]	≤ 100 nM	> 2500 nM	> 2500 nM	≤ 100 nM
CN1C(=O)C2(CC3CCC(C2)N3c2ccncn2)c2c1cnc1[nH]c(-c3ccc(CN4CCC(S(C)(=O)=O)CC4)cc3)c(-c3ccccc3)c21 [Example 16, (1R,3r,5S)-6′-Methyl-2′-((4(4-(methylsulfonyl)piperidin-1-yl)methyl)phenyl)-1′-phenyl-8-(pyrimidin-4-yl)-3′,6′-dihydro-7′H-8-azaspiro[bicyclo[3.2.1]octane-3,8′-dipyrrolo[2,3-b:3′,2′-d]pyridin]-7′-one, trifluoroacetate salt]	≤ 100 nM	> 2500 nM	> 2500 nM	≤ 100 nM
Cc1ncc(-c2c(-c3cnn(C)c3)[nH]c3ncc4c(c23)C2(CCN(c3ccncn3)CC2)C(=O)N4C)s1 [Example 17, 6-Methyl-2-(1-methyl-1H-pyrazol-4-yl)-1-(2-methylthiazol-5-yl)-1′-(pyrimidin-4-yl)-3,6-dihydro-7H-spiro[dipyrrolo[2,3-b:3′,2′-d]pyridine-8,4′-piperidin]-7-one, trifluoroacetate salt]	100 to 500 nM	> 2500 nM	> 2500 nM	100 to 500 nM
C=Cc1c(-c2cnn(C)c2)[nH]c2ncc3c(c12)C1(CCN(c2ccncn2)CC1)C(=O)N3C [Example 18, 6-Methyl-2-(1-methyl-1H-pyrazol-4-yl)-1′-(pyrimidin-4-yl)-1-vinyl-3,6-dihydro-7H-spiro[dipyrrolo[2,3-b:3′,2′-d]pyridine-8,4′-piperidin]-7-one, trifluoroacetate salt]	500 to 1250 nM	> 2500 nM	> 2500 nM	1250 to 2500 nM
CCc1c(-c2cnn(C)c2)[nH]c2ncc3c(c12)C1(CCN(c2ccncn2)CC1)C(=O)N3C [Example 19, 1-Ethyl-6-methyl-2-(1-methyl-1H-pyrazol-4-yl)-1′-(pyrimidin-4-yl)-3,6-dihydro-7H-spiro[dipyrrolo[2,3-b:3′,2′-d]pyridine-8,4′-piperidin]-7-one, trifluoroacetate salt]	100 to 500 nM	1250 to 2500 nM	1250 to 2500 nM	100 to 500 nM
